Legend:
[1] = target: T1, TRAAK (Homo sapiens, UniProt Q9NYG8); experiment: Whole-cell voltage clamp of CHO cells expressing TRAAK; assay type: cell-based; settings: whole-cell
T1 construct: expressed in transfected cells; host or cells: CHO cells, transient transfection
T1 sequence (Q9NYG8 1-393): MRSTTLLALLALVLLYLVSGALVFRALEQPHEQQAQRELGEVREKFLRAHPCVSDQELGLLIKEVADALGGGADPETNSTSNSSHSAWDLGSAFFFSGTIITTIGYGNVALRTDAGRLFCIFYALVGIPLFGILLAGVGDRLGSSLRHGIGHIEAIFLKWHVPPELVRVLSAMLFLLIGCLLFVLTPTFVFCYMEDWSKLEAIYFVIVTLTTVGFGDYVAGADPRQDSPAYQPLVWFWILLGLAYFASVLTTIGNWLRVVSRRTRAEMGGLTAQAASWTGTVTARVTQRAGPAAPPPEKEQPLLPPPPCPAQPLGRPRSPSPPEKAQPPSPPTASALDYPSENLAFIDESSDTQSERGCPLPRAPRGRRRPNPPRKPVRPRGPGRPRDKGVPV
Excerpt: cDNA of the human TREK-1, TREK-2 and TRAAK channels were subcloned into the pEGFPN1 expression vector (Invitrogen), respectively. Mutations were introduced into TREK-1 or TRAAK by PCR using the QuickChange XL sitedirected mutagenesis kit (Agilent Technologies) and were subsequently confirmed by DNA sequencing.
Chinese hamster ovary (CHO) cells were provided by the Cell Bank of Chinese Academy of Sciences (Shanghai, China). CHO cells were maintained in DMEM/F12 (Gibco) supplemented with 10% fetal bovine serum (Gibco) and 100 μg ml^−1 penicillin-streptomycin (Cellgro) in a humidified incubator at 37 °C (5% CO2). For electrophysiology experiments, cells plated in 35 mm tissue culture dishes (Corning Incorporated) were transiently transfected with the plasmids using PolyJet™ reagent (SignaGen) according to the manufacturer’s instructions. Primers used in this study are listed in Supplementary Table 4.
(§1) All electrophysiological recordings were obtained using patch-clamp recordings in two different configurations: (1) whole cell for macroscopic current dose–response curves; and (2) outside-out and inside-out for macroscopic currents recordings.
(§2) All patch-clamp recordings were conducted 36–96 h after transfection with an Axopatch-200B amplifier (Molecular Devices) at room temperature (23–25 °C). The microelectrodes fashioned from 1.5 mm thin-walled borosilicate glass with filament were pulled from Flaming/Brown type micropipette puller (P-97; SUTTER INSTRUMENT) with the resistances of 3–7 MΩ (whole cell) or 7–15 MΩ (outside-out) when filled with a solution containing (in mM): 140 KCl, 2 MgCl2, 10 EGTA, 1 CaCl2, 10 HEPES (pH 7.3, adjusted with KOH). External solution contained (in mM): 150 NaCl, 5 KCl, 0.5 CaCl2, 1.2 MgCl2, 10 HEPES (pH 7.3, adjusted with NaOH). The current signals were filtered at 1 kHz and digitized at a 10 kHz sampling frequency by using DigiData 1440 A.
Data of whole-cell voltage clamp experiments were fitted using doseResp function. The half inhibition concentrations were derived from fits of the dose–response curves to the function:1 I/I0=A1+A2-A1/1+10^logx0-xP, where I 0 and I are current amplitudes before and after application of inhibitors; A 1 and A 2 are constants between 0 and 1; x is the concentration of inhibitor; x o is the concentration when 50% inhibition was reached (IC50), P is the Hill constant.

[2] = system: T2, TREK-1; experiment: Outside-out and inside-out patch recordings of TREK-1; assay type: cell-based, human; settings: +80 mV
T2 construct: expressed in transfected cells; host or cells: CHO cells, transient transfection
Description: as §1, §2
In the outside-out patch recordings and inside-out patch recordings, the inhibitor (10–30 μM TKDC) was applied via dish perfusion. The bath level was kept as low as possible to reduce noise. Currents were recorded at a pipette potential of + 80 mV. […]
mechanical force, lipids, or pH change)? A comprehensive survey would be nice, but even evaluating block +/- one activating stimulus would be a very useful piece of information to know for those interested in using this drug.
Response: We have tested the TKDC-induced inhibition of TREK-1 in addition to the mechanical force using outside-out patch. 10 μM TKDC was applied via dish perfusion. The bath level was kept as low as possible to reduce noise. Currents were recorded at a pipette potential of +80 mV. Mechanical stimulation (-7 mmHg) for patches was applied by suction for the outside-out configuration using a pressure monitor (PM 015D, World Precision Instruments) controlled by clampex 10.6 software. As […]
The main aim of this work is to reveal an allosteric ligand-binding site in the extracellular cap of K2P channels. […]

[3] = system: cell surface TREK-1 expression; experiment: Flow cytometry analysis of TREK-1 cell membrane expression; assay type: cell-based, CHO-K1 cells; settings: 10 μM, 20, 40 min and 1 h incubation
Description: CHO-K1 cells were transfected with pFLAG-TREK1 for 24 h. After washed with phosphate-buffered saline (PBS), the cells were disassociated with a non-enzyme cell dissociation solution (Sigma). After 10 μM TKDC incubation for 20, 40 min and 1 h at room temperature, cell surface TREK-1 expression in CHO-K1 cells was analyzed by flow cytometry. Transfected cells expressing FLAG-tagged TREK-1 were incubated with monoclonal ANTI-FLAG® M2-FITC antibody (Sigma). Data were collected with a flow cytometer (FACS Calibur, BD Bioscience) and analyzed with Flow Jo.

- decrease in the current ([1]; TRAAK, 300 μM TKDC perfused): ~ 75%
- IC50 ([1]; CHO cells, WT TRAAK, mean ± s.e.m): 65.9 ± 7 µM
SMILES: CS(=O)(=O)N(CC(=O)N1CCc2ccccc2C1)c1ccc(Cl)cc1 [TKDC, N-(4-cholorphenyl)-N-(2-(3,4-dihydrosioquinolin-2(1H)-yl)-2-oxoethyl)methanesulfonamide]
- inhibition of TREK-1, outside-out recording ([2]; application to the extracellular face, 10 and 30 μM): consistently inhibited TREK-1
- inhibition of TREK-1, inside-out recording ([2]; application to the intracellular side, 10 and 30 μM): did not significantly inhibit TREK-1 activity
- effect on activation of TREK-1 by mechanical force ([2]; outside-out patch, 10 μM, -7 mmHg): suppressed the activation of TREK-1 by mechanical force
- cell surface signal of TREK-1 positive cells [3]: did not obviously lose the cell surface signal

Source: PMC5575254, “An allosteric ligand-binding site in the extracellular cap of K2P channels” (Nature Communications, 2017)
